Values of other authors in patent publication US20090239923A1 (priority 2008, published 2009).

Test system: human body
Conditions: ingestion, 70 Kg human body; 90 mL = 70 g

CO [methanol]
Lethal dose: 90 mL
